Here are results for 1 molecule from ChEMBL document CHEMBL1151619, “Structure and conformation of two new dolabellane-based diterpenes from Dictyota sp” (J Nat Prod, 1984).

The assay deals with KB. Briefly: Cytotoxicity against human KB cells. It is filed as functional, cell-based.

The structures appear in SMILES notation. The source made the active and inactive calls. No cut-off for these calls is given here.

Regarding `C=C(C)[C@@H]1CC[C@]2(C)C[C@H](OC(C)=O)/C(CO)=C/CC/C(C)=C/C[C@@H]12`, the outcome was Active.
